# Values quoted from earlier work in patent publication US20060147527A1, “Controlled release preparations comprising tramadol and topiramate” (CILAG AG, priority 2002, published 2006).
# Tested on: Chung model of post-nerve constriction injury
# Details: each drug alone
row,SMILES,maximal effect reached as the dose is escalated
1,"COc1cccc(C2(O)CCCCC2CN(C)C)c1 (single isomer, unassigned) [tramadol, (1R,2R or 1S,2S)-2-[(dimethylamino)methyl]-1-(3-methoxyphenyl)-cyclohexanol]",100 % MPE
2,"CC1(C)O[C@@H]2[C@@H](CO[C@@]3(COS(N)(=O)=O)OC(C)(C)O[C@@H]23)O1 [topiramate, 2,3:4,5-bis-O-(1-methylethylidene)-β-D-fructopyranose sulfamate]",100 % MPE
